Laboratory results: patent publication US20200289474A1, “METHODS OF TREATING PAIN WITH A THIAZOLINE ANTI-HYPERALGESIC” (priority 2019, published 2020)

Experiment: dog single oral dose MTD study
Type: in vivo
Settings: for Average Compound 1 Concentration in Dog Plasma: N = 2
Experimental: Using a pyramiding dose schedule, dose levels of 250, 350 and 500 mg/kg were administered to 2 dogs/sex (after a washout period of at least three days, the same animals were dosed with the next dose level). The dose volume was 10 mL/kg body weight. The vehicle was 0.5% aqueous HPMC.

Structure (SMILES): CC1(C)SC(Nc2ccccc2O)=N[C@@H]1C(=O)O.Cl [Compound 1, (R)-2-(2-hydroxyphenylamino)-5,5-dimethyl-4,5-dihydrothiazole-4-carboxylic acid mono-hydrochloride]
- Average Compound 1 Concentration in Dog Plasma (250 mg/kg PO (Dose 1; Day 1), 0.5 h, F): 28 µg/mL
- Average Compound 1 Concentration in Dog Plasma (250 mg/kg PO (Dose 1; Day 1), 0.5 h, M): 71 µg/mL
- Average Compound 1 Concentration in Dog Plasma (250 mg/kg PO (Dose 1; Day 1), 1 h, F): 54 µg/mL
- Average Compound 1 Concentration in Dog Plasma (250 mg/kg PO (Dose 1; Day 1), 1 h, M): 110 µg/mL
- Average Compound 1 Concentration in Dog Plasma (250 mg/kg PO (Dose 1; Day 1), 2 h, F): 46 µg/mL
- Average Compound 1 Concentration in Dog Plasma (250 mg/kg PO (Dose 1; Day 1), 2 h, M): 91 µg/mL
- Average Compound 1 Concentration in Dog Plasma (350 mg/kg PO (Dose 3; Day 9), 0.5 h, F): 67 µg/mL
- Average Compound 1 Concentration in Dog Plasma (350 mg/kg PO (Dose 3; Day 9), 0.5 h, M): 134 µg/mL
- Average Compound 1 Concentration in Dog Plasma (350 mg/kg PO (Dose 3; Day 9), 1 h, F): 154 µg/mL
- Average Compound 1 Concentration in Dog Plasma (350 mg/kg PO (Dose 3; Day 9), 1 h, M): 220 µg/mL
- Average Compound 1 Concentration in Dog Plasma (350 mg/kg PO (Dose 3; Day 9), 2 h, F): 119 µg/mL
- Average Compound 1 Concentration in Dog Plasma (350 mg/kg PO (Dose 3; Day 9), 2 h, M): 153 µg/mL
- Average Compound 1 Concentration in Dog Plasma (500 mg/kg PO (Dose 2; Day 4), 0.5 h, F): 87 µg/mL
- Average Compound 1 Concentration in Dog Plasma (500 mg/kg PO (Dose 2; Day 4), 0.5 h, M): 111 µg/mL
- Average Compound 1 Concentration in Dog Plasma (500 mg/kg PO (Dose 2; Day 4), 1 h, F): 136 µg/mL
- Average Compound 1 Concentration in Dog Plasma (500 mg/kg PO (Dose 2; Day 4), 1 h, M): 191 µg/mL
- Average Compound 1 Concentration in Dog Plasma (500 mg/kg PO (Dose 2; Day 4), 2 h, F): 124 µg/mL
- Average Compound 1 Concentration in Dog Plasma (500 mg/kg PO (Dose 2; Day 4), 2 h, M): 193 µg/mL
- tolerability (dogs, single oral (gavage) dose of 500 mg/kg, emesis in three of the four dosed animals): not tolerated
